Assay type in all cases: in vivo
Assay [1] relates to diamondback moth (Plutella xylostella). The assay can be described thus: Test A: control of diamondback moth on radish plant, foliar spray. Particulars: sprayed at 50 ppm, held 6 days. The text has this:
For evaluating control of diamondback moth (Plutella xylostella) the test unit consisted of a small open container with a 12-14-day-old radish plant inside. This was pre-infested with about 50 neonate larvae that were dispensed into the test unit via corncob grits using a bazooka inoculator. The larvae moved onto the test plant after being dispensed into the test unit.
(§1) Test compounds were formulated using a solution containing 10% acetone, 90% water and 300 ppm X-77™ Spreader Lo-Foam Formula non-ionic surfactant containing alkylarylpolyoxyethylene, free fatty acids, glycols and isopropanol (Loveland Industries, Inc. Greeley, Colo., USA). The formulated compounds were applied in 1 mL of liquid through a SUJ2 atomizer nozzle with ⅛ JJ custom body (Spraying Systems Co. Wheaton, Ill., USA) positioned 1.27 cm (0.5 inches) above the top of each test unit. All experimental compounds in these tests were sprayed at 50 ppm, and the test was replicated three times. After spraying of the formulated test compound, each test unit was allowed to dry for 1 h and then a black, screened cap was placed on top. The test units were held for 6 days in a growth chamber at 25° C. and 70% relative humidity. Plant feeding damage was then visually assessed based on foliage consumed, and a pest mortality rating was also counted and calculated for each test unit.

Assay [2] relates to fall armyworm (Spodoptera frugiperda). The assay can be described thus: Test B: control of fall armyworm on corn (maize) plant, foliar spray. The conditions noted are these: sprayed at 50 ppm. As for the experimental part: as §1
For evaluating control of fall armyworm (Spodoptera frugiperda) the test unit consisted of a small open container with a 4-5-day-old corn (maize) plant inside. This was pre-infested (using a core sampler) with 10-15 1-day-old larvae on a piece of insect diet. Test compounds were formulated and sprayed at 50 ppm as described for Test A and replicated three times. After spraying, the test units were maintained in a growth chamber and then the control efficacy was rated for each test unit as described for Test A.

The subject of assay [3] is western flower thrips (Frankliniella occidentalis). The assay can be described thus: Test E: control of western flower thrips on Soleil bean plant, contact and/or systemic. The conditions noted are these: held 6 days. As for the experimental part: as §1
For evaluating control of the western flower thrips (Frankliniella occidentalis) through contact and/or systemic means, the test unit consisted of a small open container with a 5-7-day-old Soleil Bean plant inside. Test compounds were formulated and sprayed as described for Test A. All experimental compounds in these tests were sprayed at 250 or 50 ppm as noted, and the test was replicated three times. After spraying, the test units were allowed to dry for 1 h, 22-27 adult thrips were added to each unit and then a black, screened cap was placed on top. The test units were held for 6 days at 25° C. and 45-55% relative humidity. A mortality rating was assessed along with a plant damage rating for each test unit.

On to `O=C(CNC(=O)c1ccc(C2=NOC(c3cccc(OC(F)(F)F)c3)(C(F)(F)F)C2)c2ccccc12)NCC(F)(F)F` (stereo not drawn) [Compound 72], for which the “levels of control efficacy (20% or less feeding damage or 80% or more mortality)” value in assay [1] and in assay [2] was “very good to excellent” throughout.

On to `CCCNC(=O)C(C)NC(=O)c1ccc(C2=NOC(c3cc(C(F)(F)F)cc(C(F)(F)F)c3)(C(F)(F)F)C2)c2ccccc12` (stereo not drawn) [Compound 89], for which the “levels of control efficacy (20% or less feeding damage or 80% or more mortality)” value in assay [2] was “very good to excellent”.

Regarding `CC(C)SCCCNC(=O)c1ccc(C2=NOC(c3cccc(C(F)(F)F)c3)(C(F)(F)F)C2)c2ccccc12` (racemic) [Compound 56], the “levels of control efficacy (20% or less feeding damage or 80% or more mortality)” value in assay [1] and in assay [2] was “very good to excellent” each time.

Regarding `CC(C)NC(=O)C(C)NC(=O)c1ccc(C2=NOC(c3cc(Cl)cc(C(F)(F)F)c3)(C(F)(F)F)C2)c2ccccc12` (mixture of isomers) [Compound 128], the “levels of control efficacy (20% or less feeding damage or 80% or more mortality)” value in assay [2] is listed as “very good to excellent”.

On to `O=C(NCCO)c1ccc(C2=NOC(c3cc(C(F)(F)F)cc(C(F)(F)F)c3)(C(F)(F)F)C2)c2ccccc12` (stereo not drawn) [Compound 69], for which the “levels of control efficacy (20% or less feeding damage or 80% or more mortality)” value in assay [1] and in assay [2] was “very good to excellent” each time.

Take `CCNC(=O)C(C)NC(=O)c1ccc(C2=NOC(c3cc(Cl)cc(C(F)(F)F)c3)(C(F)(F)F)C2)c2ccccc12` (mixture of isomers) [Compound 126]: the “levels of control efficacy (20% or less feeding damage or 80% or more mortality)” value in assay [2] is “very good to excellent”.

On to `CC(C)SCCNC(=O)c1ccc(C2=NOC(c3cccc(C(F)(F)F)c3)(C(F)(F)F)C2)c2ccccc12` (racemic) [Compound 55], for which the “levels of control efficacy (20% or less feeding damage or 80% or more mortality)” value in assay [1] and in assay [2] was “very good to excellent” each time.

As to `CC(NC(=O)CNC(=O)c1ccc(C2=NOC(c3cc(Cl)cc(C(F)(F)F)c3)(C(F)(F)F)C2)c2ccccc12)C(F)(F)F` (stereo not drawn) [Compound 113], the “levels of control efficacy (20% or less feeding damage or 80% or more mortality)” value in assay [1] and in assay [2] was “very good to excellent” throughout.

On to `O=C(CNC(=O)c1ccc(C2=NOC(c3cc(Cl)cc(Cl)c3)(C(F)(F)F)C2)c2ccccc12)NCC(F)(F)C(F)(F)F` (stereo not drawn) [Compound 14], for which the “levels of control efficacy (20% or less feeding damage or 80% or more mortality)” value in assay [1] and in assay [2] was “very good to excellent” each time.

As to `CCC(O)CNC(=O)c1ccc(C2=NOC(c3cccc(C(F)(F)F)c3)(C(F)(F)F)C2)c2ccccc12` (stereo not drawn) [Compound 64], the “levels of control efficacy (20% or less feeding damage or 80% or more mortality)” value in assay [1] and in assay [2] was “very good to excellent” in each case.

Regarding `C[S+]([O-])CCNC(=O)c1ccc(C2=NOC(c3cc(Cl)cc(C(F)(F)F)c3)(C(F)(F)F)C2)c2ccccc12` (stereo not drawn) [Compound 114], the “levels of control efficacy (20% or less feeding damage or 80% or more mortality)” value in assay [1] and in assay [2] was “very good to excellent” throughout.

On to `CSCCNC(=O)c1ccc(C2=NOC(c3cccc(OC(F)(F)F)c3)(C(F)(F)F)C2)c2ccccc12` (stereo not drawn) [Compound 71], for which the “levels of control efficacy (20% or less feeding damage or 80% or more mortality)” value in assay [1] and in assay [2] was “very good to excellent” in each case.

Turning to `CC(NC(=O)c1ccc(C2=NOC(c3cc(Cl)cc(C(F)(F)F)c3)(C(F)(F)F)C2)c2ccccc12)C(=O)NC(C)C(F)(F)F` (stereo not drawn) [Compound 115], the “levels of control efficacy (20% or less feeding damage or 80% or more mortality)” value in assay [1] and in assay [2] was “very good to excellent” in each case.

Regarding `CC(NC(=O)c1ccc(C2=NOC(c3cc(Cl)cc(C(F)(F)F)c3)(C(F)(F)F)C2)c2ccccc12)C(=O)NCC(F)(F)F` (mixture of isomers) [Compound 127], the “levels of control efficacy (20% or less feeding damage or 80% or more mortality)” value in assay [2] is given as “very good to excellent”.

As for `CC(NC(=O)CNC(=O)c1ccc(C2=NOC(c3cc(C(F)(F)F)cc(C(F)(F)F)c3)(C(F)(F)F)C2)c2ccccc12)C(F)(F)F` (stereo not drawn) [Compound 91], the “levels of control efficacy (20% or less feeding damage or 80% or more mortality)” value in assay [2] and in assay [3] (sprayed at 50 ppm) was “very good to excellent” in each case.

Consider `CC(O)(CNC(=O)c1ccc(C2=NOC(c3cccc(C(F)(F)F)c3)(C(F)(F)F)C2)c2ccccc12)C(F)(F)F` (mixture of isomers) [Compound 45], for which the “levels of control efficacy (20% or less feeding damage or 80% or more mortality)” value in assay [1] and in assay [2] was “very good to excellent” in each case.

Consider `CCC(CO)NC(=O)c1ccc(C2=NOC(c3cccc(C(F)(F)F)c3)(C(F)(F)F)C2)c2ccccc12` (mixture of isomers) [Compound 46], for which the “levels of control efficacy (20% or less feeding damage or 80% or more mortality)” value in assay [1] and in assay [2] was “very good to excellent” each time.

On to `CCCNC(=O)C(C)NC(=O)c1ccc(C2=NOC(c3cc(Cl)cc(C(F)(F)F)c3)(C(F)(F)F)C2)c2ccccc12` (mixture of isomers) [Compound 129], for which the “levels of control efficacy (20% or less feeding damage or 80% or more mortality)” value in assay [2] is reported as “very good to excellent”.

Regarding `CNC(=O)C(C)NC(=O)c1ccc(C2=NOC(c3cc(Cl)cc(C(F)(F)F)c3)(C(F)(F)F)C2)c2ccccc12` (mixture of isomers) [Compound 125], in assay [2], the “levels of control efficacy (20% or less feeding damage or 80% or more mortality)” value is listed as “very good to excellent”.

On to `O=C(NCO)c1ccc(C2=NOC(c3cc(Cl)cc(Cl)c3)(C(F)(F)F)C2)c2ccccc12` (stereo not drawn) [Compound 82], for which the “levels of control efficacy (20% or less feeding damage or 80% or more mortality)” value in assay [1] and in assay [2] was “very good to excellent” in each case.

`O=C(CNC(=O)c1ccc(C2=NOC(c3cccc(Br)c3)(C(F)(F)F)C2)c2ccccc12)NCC(F)(F)F` (stereo not drawn) [Compound 70]: the “levels of control efficacy (20% or less feeding damage or 80% or more mortality)” value in assay [1] and in assay [2] was “very good to excellent” in each case.

With `CSCCNC(=O)c1ccc(C2=NOC(c3cc(F)cc(F)c3)(C(F)(F)F)C2)c2ccccc12` (stereo not drawn) [Compound 77], the “levels of control efficacy (20% or less feeding damage or 80% or more mortality)” value in assay [1] and in assay [3] (sprayed at 250 ppm) was “very good to excellent” in each case.

With `O=C(CNC(=O)c1ccc(C2=NOC(c3cc(Cl)cc(Cl)c3)(C(F)(F)F)C2)c2ccccc12)NCCCl` (stereo not drawn) [Compound 10], the “levels of control efficacy (20% or less feeding damage or 80% or more mortality)” value in assay [1] and in assay [2] was “very good to excellent” each time.

Consider `CC(C)(CO)NC(=O)c1ccc(C2=NOC(c3cc(Cl)cc(Cl)c3)(C(F)(F)F)C2)c2ccccc12` (racemic) [Compound 32], for which the “levels of control efficacy (20% or less feeding damage or 80% or more mortality)” value in assay [1], in assay [3] (sprayed at 50 ppm) and in assay [3] (sprayed at 250 ppm) was “very good to excellent” each time.

Regarding `O=C(CNC(=O)c1ccc(C2=NOC(c3cc(Cl)cc(Cl)c3)(C(F)(F)F)C2)c2ccccc12)NCC(F)(F)C(F)(F)C(F)(F)F` (stereo not drawn) [Compound 13], the “levels of control efficacy (20% or less feeding damage or 80% or more mortality)” value in assay [1] and in assay [2] was “very good to excellent” each time.

Regarding `CC(O)CCNC(=O)c1ccc(C2=NOC(c3cccc(C(F)(F)F)c3)(C(F)(F)F)C2)c2ccccc12` (mixture of isomers) [Compound 44], the “levels of control efficacy (20% or less feeding damage or 80% or more mortality)” value in assay [1], in assay [3] (sprayed at 50 ppm) and in assay [3] (sprayed at 250 ppm) was “very good to excellent” each time.

Consider `CC(NC(=O)c1ccc(C2=NOC(c3cc(Cl)cc(C(F)(F)F)c3)(C(F)(F)F)C2)c2ccccc12)C(=O)NCC(C)(C)C` (mixture of isomers) [Compound 112], for which the “levels of control efficacy (20% or less feeding damage or 80% or more mortality)” value in assay [1] and in assay [3] (sprayed at 250 ppm) was “very good to excellent” throughout.

`CC(C)CNC(=O)C(C)NC(=O)c1ccc(C2=NOC(c3cc(Cl)cc(C(F)(F)F)c3)(C(F)(F)F)C2)c2ccccc12` (mixture of isomers) [Compound 130]: the “levels of control efficacy (20% or less feeding damage or 80% or more mortality)” value in assay [2] is “very good to excellent”.

Source of the values: patent US8410153B2, “Naphthalene isoxazoline invertebrate pest control agents” (E.I. du Pont de Nemours and Company, priority 2007, dated 2013).
